Laboratory results published in ChEMBL document CHEMBL1125153, “Structure-activity correlations for psychotomimetics. 1. Phenylalkylamines: electronic, volume, and hydrophobicity parameters” (1990).

Key:
Assay type in all cases: functional
Homo sapiens [1] = species: Homo sapiens; experiment: Hallucinogenic activity i.e; ratio of effective dose of mescaline to the effective dose in human
Rattus norvegicus = experiment: Effective dose in rats trained on 1 mg/kg DOM.
Homo sapiens [2] = species: Homo sapiens; experiment: Log value of hallucinogenic activity was determined

| SMILES | Activity (Homo sapiens [1]) | ED50 (Rattus norvegicus) | Log activity (Homo sapiens [2]) |
| --- | --- | --- | --- |
| COc1cc(CCN)c(OC)cc1C | 20 MU | 1.31 mg/kg | 1.301 |
| COc1ccc(CC(C)N)c(OC)c1OC (stereo not drawn) | 2 MU | 7.8 mg/kg | 0.301 |
| CCOc1cc(CCN)cc(OC)c1OCC | 1.5 MU |  | 0.176 |
| COc1cc(OC)c(OC)cc1CCN | <1 MU |  | -0.301 |
| COc1cc(CC(C)N)c(OC)c2c1OCO2 (stereo not drawn) | 12 MU |  | 1.079 |
| COc1cc(CCN)cc(OC)c1SC | 12 MU |  | 1.079 |
| CCOc1cc(CCN)cc(OCC)c1OC | <1 MU |  | -0.301 |
| CCOc1cc(OC)c(CC(C)N)cc1OC (stereo not drawn) | 20 MU |  | 1.301 |
| COc1ccc(CC(C)N)c(OC)c1 (stereo not drawn) | 5 MU | 4.88 mg/kg | 0.699 |
| CCOc1cc(CCN)cc(OCC)c1SCC | <1 MU |  | -0.301 |
| COc1cc(CCN)cc(SC)c1OC | 6 MU |  | 0.778 |
| COc1cc(CC(C)N)cc(OC)c1OC (stereo not drawn) | 2 MU | 6.34 mg/kg | 0.301 |
| CCOc1cc(CCN)cc(OCC)c1OCC | <1 MU |  | -0.301 |
| COc1ccc2c(c1CC(C)N)OCO2 (stereo not drawn) | 10 MU |  | 1 |
| COc1cc(CCN)cc(OC)c1OC [MESCALINE] | 1 MU | 14.6 mg/kg | 0 |
| CCOc1cc(CCN)cc(OC)c1OC | 1 MU |  | 0 |
| COc1ccc(CC(C)N)c2c1OCO2 (stereo not drawn) | 3 MU |  | 0.477 |
| CCOc1c(OC)cc(CCN)cc1OC | 7 MU |  | 0.845 |
| COc1ccc(OC)c(OC)c1CC(C)N (stereo not drawn) | 10 MU |  | 1 |
| COc1ccc(CCN)cc1OC | <0.2 MU |  | -1 |
| COc1c(CC(C)N)cc2c(c1OC)OCO2 (stereo not drawn) | 5 MU |  | 0.699 |

| SMILES | Activity (Homo sapiens [1]) | ED50 (Rattus norvegicus) | Log activity (Homo sapiens [2]) |
| --- | --- | --- | --- |
| COc1ccc(CC(C)N)cc1OC (stereo not drawn) | 0.5 MU |  | -0.301 |
| COc1cc(CC(C)N)cc2c1OCO2 (stereo not drawn) | 2.7 MU | 3.66 mg/kg | 0.431 |
| COc1cc(CC(C)N)c(OC)c(OC)c1 (stereo not drawn) | 4 MU | 16.5 mg/kg | 0.602 |
| CC(N)Cc1ccc2c(c1)OCO2 (stereo not drawn) [TENAMFETAMINE] | 3 MU | 1.68 mg/kg | 0.477 |
| COc1cc(CC(C)N)c(OC)cc1C (stereo not drawn) [DOM] | 80 MU | 0.44 mg/kg | 1.903 |
| CCOc1cc(CCN)cc(OC)c1SCC | 4 MU |  | 0.602 |
| CCCSc1c(OC)cc(CCN)cc1OC | 16 MU |  | 1.204 |
| CCOc1cc(CCN)cc(SCC)c1OCC | <1 MU |  | -0.301 |
| CCCOc1cc(OC)c(CC(C)N)cc1OC (stereo not drawn) | 20 MU |  | 1.301 |
| CCOc1c(OC)cc(CCN)cc1SCC | 2 MU |  | 0.301 |
| CCc1cc(OC)c(CCN)cc1OC | 18 MU |  | 1.255 |
| COc1cc(CC(C)N)c(OC)cc1CC(C)C (stereo not drawn) | 20 MU |  | 1.301 |
| CCSc1cc(CCN)cc(OC)c1OC | 6 MU |  | 0.778 |
| COc1cc(OC)c(OC)cc1CC(C)N (stereo not drawn) | 20 MU |  | 1.301 |
| COc1cc(OC)c(CC(C)N)c(OC)c1 (stereo not drawn) | 10 MU | 3.69 mg/kg | 1 |
| COc1c(CC(C)N)ccc2c1OCO2 (stereo not drawn) | 10 MU |  | 1 |
| COc1ccc(CCN)cc1 | <1 MU |  | -0.301 |
| COc1ccc(OC)c(CC(C)N)c1 (stereo not drawn) | 8 MU | 5.51 mg/kg | 0.903 |
| CCOc1c(OC)cc(CCN)cc1SC | 6 MU |  | 0.778 |
| CCOc1cc(CCN)cc(SCC)c1OC | <1 MU |  | -0.301 |
| COc1ccc(CC(C)N)cc1 (stereo not drawn) [PARA-METHOXYAMPHETAMINE] | 5 MU |  | 0.699 |

| SMILES | Activity (Homo sapiens [1]) | ED50 (Rattus norvegicus) | Log activity (Homo sapiens [2]) |
| --- | --- | --- | --- |
| CCOc1cc(CCN)cc(SC)c1OC | <1 MU |  | -0.301 |
| COc1cc(SC(C)C)c(OC)cc1CC(C)N (stereo not drawn) | 40 MU |  | 1.602 |
| CCOc1cc(CCN)cc(OC)c1SC | 4 MU |  | 0.602 |
| COc1cc2c(cc1CC(C)N)OCO2 (stereo not drawn) | 10 MU |  | 1 |
| CCCCCc1cc(OC)c(CC(C)N)cc1OC (stereo not drawn) | 10 MU |  | 1 |
| COc1ccc(CCN)c(OC)c1OC | <1 MU |  | -0.301 |
| CCOc1cc(CCN)cc(OCC)c1SC | <1 MU |  | -0.301 |
| CCCCSc1c(OC)cc(CCN)cc1OC | 3 MU |  | 0.477 |
| CCSc1c(OC)cc(CCN)cc1OC | 20 MU |  | 1.301 |
| CCc1cc(OC)c(CC(C)N)cc1OC (stereo not drawn) | 100 MU | 0.23 mg/kg | 2 |
| COc1cc(CC(C)N)cc(C)c1OCc1ccccc1 (stereo not drawn) | 2 MU |  | 0.301 |
| CCCOc1c(OC)cc(CCN)cc1OC | 6 MU |  | 0.778 |
| COc1cc(SC)c(OC)cc1CC(C)N (stereo not drawn) | 40 MU |  | 1.602 |
| NCCc1ccc2c(c1)OCO2 | 1 MU |  | 0 |
| CCCOc1cc(CCN)cc(OC)c1OC | <1 MU |  | -0.301 |
| COc1cc(CC(C)N)c(OC)c(OC)c1OC (stereo not drawn) | 6 MU |  | 0.778 |
| CCCCc1cc(OC)c(CC(C)N)cc1OC (stereo not drawn) | 40 MU | 0.91 mg/kg | 1.602 |
| CCCc1cc(OC)c(CC(C)N)cc1OC (stereo not drawn) | 80 MU | 0.17 mg/kg | 1.903 |
| CCOc1cc(CCN)cc(SC)c1OCC | 2 MU |  | 0.301 |
| CCCCOc1c(OC)cc(CCN)cc1OC | 2 MU |  | 0.301 |
